From PMC3174152, “Pseudomonas aeruginosa 4-Amino-4-Deoxychorismate Lyase: Spatial Conservation of an Active Site Tyrosine and Classification of Two Types of Enzyme” (PLoS ONE, 2011)

Molecular target: T1, PaPabC (Pseudomonas aeruginosa, UniProt Q9HZN6)
T1 construct: gene pabC; full length (271 residues), N-terminal His6 tag with TEV site kept (not cleaved), modified pET15b, E. coli BL21(DE3) Gold; homodimer, about 50 kDa
T1 sequence (Q9HZN6 1-271): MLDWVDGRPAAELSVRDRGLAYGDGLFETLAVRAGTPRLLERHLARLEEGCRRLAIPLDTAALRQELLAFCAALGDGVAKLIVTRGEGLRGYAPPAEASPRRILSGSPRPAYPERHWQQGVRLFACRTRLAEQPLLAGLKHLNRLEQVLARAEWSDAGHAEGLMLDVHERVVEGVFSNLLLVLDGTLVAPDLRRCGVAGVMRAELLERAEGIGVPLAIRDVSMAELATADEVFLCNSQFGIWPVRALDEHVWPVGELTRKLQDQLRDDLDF
Experiment: X-ray crystal structure ([…] Å), omit map
Assay type: binding
Conditions: covalent, Schiff base with Lys140; Tyr92 of partner subunit contacts PLP O3; crystallised with 0.1 mM PLP and 10 mM PABA, pH 6.5

In the case of `Cc1ncc(COP(=O)(O)O)c(C=O)c1O` [PLP], the “X-ray crystal structure (1.75 Å), omit map” value is reported as “The presence of the PLP cofactor covalently bound to Lys140 was confirmed”.
